# Measured values from patent US20190209581A1, “DOSAGE REGIMEN FOR TREATMENT OF SOLID TUMORS” (Eli Lilly and Company, priority 2016, published 2019).
# How the values were obtained:
# Assay type in all cases: in vivo
# [1] = system: U-87 MG human glioblastoma cell line; assay: Tumor growth inhibition, U-87 MG xenograft; conditions: U-87 MG in mice, oral 8 mg/kg, (Mon, Wed, Fri)x4; p <0.0001
# Procedure: (§1) To evaluate in vivo efficacy and effect of 4,4,4-Trifluoro-N-[(1S)-2-[[(7S)-5-(2-hydroxyethyl)-6-oxo-7H-pyrido[2,3-d][3]benzazepin-7-yl]amino]-1-methyl-2-oxo-ethyl]butanamide on inhibition of Notch processing pharmacodynamics (PD), several cell lines- and patient-derived xenograft models are used. A2780 is a human ovarian cell line (Sigma-Aldrich, No. 93112519); SW480 is a human colorectal cell line (ATCC No. CCL-228); HCT 116 is a human colorectal cell line (ATCC No. CCL-247); U-87 MG is a human glioblastoma cell line (ATCC No. HTB-14); A375 is a human malignant melanoma cell line (ATCC No. CRL-1619); K-562 is a human chronic myelogenous leukemia (CML) cell line characterized by the presence of a fusion transcript comprised of the Bcr and Abl1 genes (ATCC No. CCL-243); Jurkat; HEL 92.1.7 is a human erythroleukemia cell line (ATCC No. TIB-180). […] Tumor growth and body weight are monitored over time to evaluate efficacy and signs of toxicity. Bidimensional measurements of tumors are performed twice a week and tumor volumes are calculated based on the following formula: (Tumor Volume)=[(L)×(W2)×(Π/6)] where L is mid-axis length and W is mid-axis width. […] The log volume data are analyzed with a two-way repeated measures analysis of variance by time and treatment using the MIXED™ procedures in SAS™ software (version 8.2). […]
# [2] = system: A375 human malignant melanoma cell line; assay: Tumor growth inhibition, A-375 xenograft; conditions: A-375 in mice, oral 8 mg/kg, (Mon, Wed, Fri)x4; p NS
# Procedure: as §1
# [3] = system: human triple negative invasive ductal breast carcinoma (EL1997); assay: Tumor growth inhibition, patient-derived tumor model EL1997; conditions: EL1997 in mice, oral 10 mg/kg (Q2Dx7), 11-days OFF, 8 mg/kg (Mon, Wed, Fri)x4; p <0.0001
# Procedure: as §1
# [4] = system: human colon carcinoma (EL2144); assay: Tumor growth inhibition, patient-derived tumor model EL2144; conditions: EL2144 in mice, oral 10 mg/kg, Q2Dx8; p <0.0001
# Procedure: as §1
# [5] = system: human glioblastoma (EL 2056); assay: Tumor growth inhibition, patient-derived tumor model EL2056; conditions: EL2056 in mice, oral 8 mg/kg, (Mon, Wed, Fri)x5; p <0.0001
# Procedure: as §1
compound,measurement,setting,value
"C[C@H](NC(=O)CCC(F)(F)F)C(=O)N[C@@H]1C(=O)N(CCO)c2ncccc2-c2ccccc21 [Compound 1, 4,4,4-trifluoro-N-[(1S)-2-[[(7S)-5-(2-hydroxyethyl)-6-oxo-7H-pyrido[2,3-d][3]benzazepin-7-yl]amino]-1-methyl-2-oxo-ethyl]butanamide]",% TGI,[1],53.33 (<0.0001) %
same,% TGI,[2],28.47 (NS) %
same,% TGI,[3],80.28 (<0.0001) %
same,% TGI,[4],53.37 (<0.0001) %
same,% TGI,[5],59.05 (<0.0001) %
